Experimental data reported in article PMC9959716, “Borate Transporters and SLC4 Bicarbonate Transporters Share Key Functional Properties” (Membranes, 2023).

T1: ScBor1p (Saccharomyces cerevisiae, UniProt P53838)
T1 construct: gene BOR1; full length, C-terminal deca-histidine tag, pRS423-derived plasmid, GAL1 promoter, expressed in S. cerevisiae BTSY2 (bor1 deletion)
T1 sequence (P53838 1-576): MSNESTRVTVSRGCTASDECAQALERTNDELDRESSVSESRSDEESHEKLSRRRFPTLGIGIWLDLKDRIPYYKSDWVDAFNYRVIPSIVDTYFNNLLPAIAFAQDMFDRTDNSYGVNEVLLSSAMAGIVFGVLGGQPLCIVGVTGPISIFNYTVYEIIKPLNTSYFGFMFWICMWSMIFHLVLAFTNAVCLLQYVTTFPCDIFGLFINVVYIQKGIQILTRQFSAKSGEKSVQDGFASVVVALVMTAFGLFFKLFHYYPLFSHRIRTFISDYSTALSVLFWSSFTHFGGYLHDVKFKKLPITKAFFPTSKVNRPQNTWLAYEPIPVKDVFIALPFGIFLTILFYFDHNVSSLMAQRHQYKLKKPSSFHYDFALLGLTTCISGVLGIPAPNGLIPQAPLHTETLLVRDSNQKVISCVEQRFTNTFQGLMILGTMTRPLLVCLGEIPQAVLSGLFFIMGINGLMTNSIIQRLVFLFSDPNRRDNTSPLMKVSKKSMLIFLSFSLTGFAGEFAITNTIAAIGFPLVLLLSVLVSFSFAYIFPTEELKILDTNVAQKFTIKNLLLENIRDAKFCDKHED

B1: S. cerevisiae borate transporter Bor1p (natural protein, UniProt P53838 1-576, looked up)
chain: T1 sequence (P53838 1-576)
notes: Borate transporter Bor1p of S. cerevisiae, wild type; Membrane protein; Monomer-dimer equilibrium; dimer promoted by lipids; also called ScBor1p; source: reconstituted into PC or PG proteoliposomes

Assays:
ScBor1p = molecular target: T1, ScBor1p; assay: curcumin spectrophotometric quantification of intracellular borate (efflux) in yeast lysates; assay type: cell-based; conditions: 1 mM boric acid for 90 min
[1] = molecular target: the molecule itself; assay: cross-linking; purified ScBor1p reconstituted into PC (16:0/18:1) proteoliposomes, 1:20 protein:lipid (w:w), detergent removed with Bio-beads; 0.15% glutaraldehyde, 5 min, room temperature; 20 mM Mes pH 6.5, 100 mM NaCl, 2% glycerol; control with 5 min pre-treatment with 2% SDS

Molecule | curcumin spectrophotometric quantification of intracellular borate (efflux) in y (ScBor1p) | binding result [1]
OB(O)O [borate] | Quantification of borate efflux activity in yeast cells expressing each indicated protein | 
B1 |  | binds
